The source of these data is patent US6080871A, “Sulfonamides and sulfamides as H3 receptor antagonists” (James Black Foundation Limited, priority 1996, dated 2000).

Structures are written as SMILES.

The target in one assay is T1, Histamine H3 (Cavia porcellus, UniProt Q9JI35).
T1 construct: ileum longitudinal muscle myenteric plexus membranes; from tissue; host or cells: ileum longitudinal muscle myenteric plexus membranes of male Dunkin Hartley guinea pigs
In words: Histamine H3 radioligand binding assay, [3H]-R-α-methylhistamine, guinea pig ileum longitudinal muscle myenteric plexus membranes. The note with it: 3 nM [3H]-R-α-methylhistamine, 165 min, 21±3° C., Cheng Prusoff; variance ±0.12 log units; read-out: pK1 (binding assay) (converted).

In another assay the target is T2, H3 receptor (Cavia porcellus, UniProt Q9JI35).
T2 construct: the longitudinal muscle layer and adhering myenteric plexus was teased away; from tissue; host or cells: ileal longitudinal muscle with adhering myenteric plexus of male Dunkin-Hartley guinea pigs
T2 sequence (Q9JI35 whole entry): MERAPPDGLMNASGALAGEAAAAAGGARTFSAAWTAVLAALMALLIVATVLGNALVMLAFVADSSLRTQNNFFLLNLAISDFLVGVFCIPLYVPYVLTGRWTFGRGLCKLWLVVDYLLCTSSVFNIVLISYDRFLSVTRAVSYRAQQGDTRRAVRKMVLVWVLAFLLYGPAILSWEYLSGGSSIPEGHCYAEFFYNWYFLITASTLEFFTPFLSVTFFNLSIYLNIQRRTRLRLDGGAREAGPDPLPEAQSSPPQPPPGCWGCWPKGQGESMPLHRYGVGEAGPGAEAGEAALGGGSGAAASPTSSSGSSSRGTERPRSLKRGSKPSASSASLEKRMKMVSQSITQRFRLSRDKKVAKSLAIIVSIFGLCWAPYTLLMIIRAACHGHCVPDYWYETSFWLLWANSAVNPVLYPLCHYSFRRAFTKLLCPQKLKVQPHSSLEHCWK
The assay is described as follows: H3 receptor bioassay (functional assay), guinea pig ileal longitudinal muscle myenteric plexus. The following applies: antagonism of R-(α)-methylhistamine E/[A] curve, Schild's methods; electrically stimulated guinea pig ileum; variance ±0.15 log units; read-out: pKB (functional assay) (converted). The format is cell-based. The method in brief:
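Longitudinal muscle-myenteric plexus strips from male Dunkin-Hartley guinea pig ileum were held in Krebs-Henseleit at 37 °C, field-stimulated (0.1 Hz, 0.5 ms, supramaximal voltage) and recorded isometrically. After compound incubation, cumulative R-(α)-methylhistamine curves were taken as % inhibition of twitch height. Antagonist affinity came from curve rightward shift by Schild analysis.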

T1 sequence (Q9JI35 whole entry): as above

`O=S(=O)(NCCCCc1c[nH]cn1)NCC1CCCCC1` [Example 51, N-[4-(4(5)-Imidazoyl)butyl]-N'-cyclohexylmethyl-sulfamide]: on Histamine H3, the Ki is 79.4 nM. The Kb on H3 receptor was 97.7 nM.
